# Measurements as given in patent US7071187B2, “Naphthyridine derivatives” (Otsuka Pharmaceutical Factory, Inc., priority 2001, dated 2006).
# What was measured:
# [1] = test system: streptozotocin (STZ) treated male S.D. rats; assay: Pharmacological Test 1: therapeutic effect on diabetic neuropathy (Randall-Selitto pain threshold in STZ rats); format: in vivo, rat; settings: 30 mg/kg orally once a day, three hours after administration, left hind paw
# Experimental: Pharmacological Test 1 Therapeutic Effect on Diabetic Neuropathy A model group was obtained by intravenously administering 50 mg/kg streptozotocin (STZ) dissolved in 0.01 M citrate buffer solution to 8-week-old male S.D. rats. After administration, five rats were housed per cage and kept therein. Three weeks after administration of STZ, the pain threshold of each rat's left hind paw to pressure stimulation was measured by Randall-Selitto Test [Randall, L. O. and Selitto, J. J. Arch. Int. Pharmacodyn., 111, 409–419 (1957)]. The value thus obtained was termed “pre-value”. […] A 5% gum arabic solution containing the test compound was orally administered as specimen to experimental animals in one of the above three groups (test group) in such a manner that each dosage of the test compound was 30 mg/kg and the amount of administered solution was 10 ml/kg, once a day for 21 continuous days. […] On the 14th and 21st days, the pain threshold of the left hind paw of the experiment animals was measured three hours after administration. The recovery rate (%) of the pain threshold was calculated by means of the following formula: Recovery rate (%)=[(T−C)/(N−C)]×100 (wherein T is the test group average value, C is the control group average value and N is the non-treated group average value.)
# [2] = test system: male S.D. rats injected with Substance P; assay: Pharmacological Test 3: analgesic effect (Randall-Sellitto pain threshold after Substance P injection); format: in vivo, rat; settings: for analgesic effect (in words): conclusion from Table 15; for Recovery rate (%) of the pain threshold (highest recovery rate): oral, 5% gum arabic suspension 10 ml/kg, measurement point 60 minutes after Substance P injection
# Experimental: Pharmacological Test 3 Test for Evaluating Analgesic Effect Using two groups (test group and control group) each consisting of 6-week-old male S.D. rats (7 rats in each group), the pain threshold of each rat's left hind paw was measured using an Analgesy-meter (product of Unicom) in accordance with the Randall-Sellitto method [Randall, L. O. and Sellitto, J. J., Arch. Int. Pharmacodyn., 111, 409–419 (1957)]. The value thus obtained was termed “pre-value”. One hour after the measurement of the pre-value, a 5% gum arabic suspension containing compound of the invention was orally administered to the rats of the test group in an amount of 10 ml/kg, whereas a 5% gum arabic suspension (not containing compound of the invention) was orally administered to the rats of the control group in an amount of 10 ml/kg. One hour after the oral administration, a physiological saline solution containing Substance P (25 ng/0.1 ml) was subcutaneously injected into the left hind paw of each rat. The pain threshold of each rat's left hind paw was measured in the same manner as above at predetermined time intervals after the Substance P injection. The measured value is termed the “post-value”. The recovery rate (%) of the pain threshold was calculated from the post-values and pre-values of the test group and control group, by means of the following formula: [formula]
# [3] = test system: excised ilea of Hartley male guinea pigs; assay: Pharmacological Test 2: adenosine enhancing effect on electrically stimulated contraction of excised ileum; settings: guinea pig ileum, n=2
# Experimental: Adenosine Enhancing Effect
# The compounds obtained in Examples 1 and 34 were used as test compounds in the form of a dimethyl sulfoxide solution.
# As experimental animals, Hartley male guinea pigs (purchased from CHARLES RIVER JAPAN, INC.) (that were in good general condition at least 6 days after the purchase) were used. The animals were housed in a cage under controlled conditions of temperature of 20 to 26° C. (actually measured value: 22.1 to 22.9° C.), humidity of 40–70% (actually measured value: 50.3–51.5%) and lighting of 12 hours/day (7:00–19:00). The animals had free access to food (solid diet, product name of Labo G Standard, product of Nosan Corporation) and tap water.
# The following experiments were conducted using the excised ilea (n=2) of experimental animals (body weight at the time of testing: 316–388 g). The experimental animals were bled and slaughtered. […] The contraction reaction of samples was recorded on an ink-writing recorder (GRAPHTEC, SR-6211, SR-6221) through an isotonic transducer (product of NIHON KOHDEN CORPORATION, TD-112S). […]
# That is, the nutrient solution was exchanged, electronic stimulation was applied to the samples 15 minutes after exchange of the nutrient solution, and, when contraction stabilized, adenosine was cumulatively added from 10^−6 M to 10^−5 M. The adenosine dose-response curve was then obtained, and the ED50 value was calculated. […]
smiles,measurement,setting,value
"COc1cc(OCCC[S+](C)c2c([O-])c3cccnc3n(Cc3ccccc3)c2=O)cc(OC)c1OC (centres unmarked) [Example 1, 1-benzyl-3-[methyl-3-(3,4,5-trimethoxyphenoxy)propylsulfonium]-1,8-naphthyridine-2(1H)-one-4-olate]","Recovery rate (%) of the pain threshold, 14th day",[1]; 14th day,46.2%
same,"Recovery rate (%) of the pain threshold, 21st day",[1]; 21st day,56.7%
same,melting point,,147 to 149 °C
same,analgesic effect (in words),[2],excellent analgesic effect
same,Recovery rate (%) of the pain threshold (highest recovery rate),[2],46%
same,Adenosine enhancing effect (ED50(−)/ED50(+)),[3]; test compound concentration 10^−6 M,11.11
C[S+](CCOCc1ccccc1)c1c([O-])c2cccnc2n(Cc2ccccc2)c1=O (centres unmarked) [Example 2],melting point,,130 to 132 °C
C[S+](CCCOc1ccc(Cl)cc1)c1c([O-])c2cccnc2n(Cc2ccccc2)c1=O (centres unmarked) [Example 3],melting point,,145 to 147 °C
Cc1cccc(C)c1COCC[S+](C)c1c([O-])c2cccnc2n(Cc2ccccc2)c1=O (centres unmarked) [Example 4],melting point,,161 to 163 °C
Cc1cc(C)c(COCC[S+](C)c2c([O-])c3cccnc3n(Cc3ccccc3)c2=O)c(C)c1 (centres unmarked) [Example 5],melting point,,165 to 167 °C
C[S+](CCOCc1cc(C(F)(F)F)cc(C(F)(F)F)c1)c1c([O-])c2cccnc2n(Cc2ccccc2)c1=O (centres unmarked) [Example 6],melting point,,157 to 159 °C
C[S+](CCOCc1ccc2c(c1)OCO2)c1c([O-])c2cccnc2n(Cc2ccccc2)c1=O (centres unmarked) [Example 7],melting point,,124 to 126 °C
COc1cc(COCC[S+](C)c2c([O-])c3cccnc3n(Cc3ccccc3)c2=O)cc2c1OCO2 (centres unmarked) [Example 8],melting point,,84 to 87 °C
COc1cc(COCC[S+](C)c2c([O-])c3cccnc3n(Cc3ccccc3)c2=O)cc(O)c1OC (centres unmarked) [Example 9],melting point,,132 to 134 °C
COc1cc(COCC[S+](C)c2c([O-])c3cccnc3n(Cc3ccccc3)c2=O)cc(OC)c1O (centres unmarked) [Example 10],melting point,,121 to 123 °C
"COc1cc(Cn2c(=O)c([S+](C)CCOc3cc(OC)c(OC)c(OC)c3)c([O-])c3cccnc32)cc(OC)c1OC (centres unmarked) [Example 15, 1-(3,4,5-trimethoxybenzyl)-3-[methyl-2-(3,4,5-trimethoxyphenoxy)ethylsulfonium]-1,8-naphthyridine-2(1H)-one-4-olate]",analgesic effect (in words),[2],excellent analgesic effect
same,Recovery rate (%) of the pain threshold (highest recovery rate),[2],39%
"CC[S+](CCCOc1cc(OC)c(OC)c(OC)c1)c1c([O-])c2cccnc2n(Cc2ccccc2)c1=O (centres unmarked) [Example 34, 1-benzyl-3-[ethyl-3-(3,4,5-trimethoxyphenoxy)propylsulfonium]-1,8-naphthyridine-2(1H)-one-4-olate]",Adenosine enhancing effect (ED50(−)/ED50(+)),[3]; test compound concentration 10^−5 M,14.00
"COc1cc(OCC[S+](C)c2c([O-])c3cccnc3n(C)c2=O)cc(OC)c1OC (centres unmarked) [Example 36, 1-methyl-3-[methyl-2-(3,4,5-trimethoxyphenoxy)ethylsulfonium]-1,8-naphthyridine-2(1H)-one-4-olate]",analgesic effect (in words),[2],excellent analgesic effect
same,Recovery rate (%) of the pain threshold (highest recovery rate),[2],111%
